Assay results: ChEMBL document CHEMBL1201862, “PubChem BioAssay data set” (2004)
One block for each molecule: values may come before it. Activity calls are given as the source filed them.

Key:
[1] = growth suppression of beta-catenin-knockout colon cells, dose response, cell-based, HCT116, human colon tumor (AID 1045); type: functional;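 note: HCT116 colon tumor cells with beta catenin knocked out; cells exposed to compound for 60 hours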
[2] = growth suppression of PTEN-null colon cells, dose response, cell-based, HCT116 PTEN knockout (AID 1047); type: functional;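 note: HCT116 colon tumor cells with PTEN knocked out; cells exposed to compound for 60 hours before readout; potency for loss of cell viability measured by luminescence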
[3] = target: T1, Sentrin-specific protease 6 (Homo sapiens, UniProt Q9GZR1); type: functional;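 note: Luminescence-based dose-response confirmatory assay of SENP6 inhibition, following up an ultra-high-throughput screen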
T1 sequence (Q9GZR1 whole entry): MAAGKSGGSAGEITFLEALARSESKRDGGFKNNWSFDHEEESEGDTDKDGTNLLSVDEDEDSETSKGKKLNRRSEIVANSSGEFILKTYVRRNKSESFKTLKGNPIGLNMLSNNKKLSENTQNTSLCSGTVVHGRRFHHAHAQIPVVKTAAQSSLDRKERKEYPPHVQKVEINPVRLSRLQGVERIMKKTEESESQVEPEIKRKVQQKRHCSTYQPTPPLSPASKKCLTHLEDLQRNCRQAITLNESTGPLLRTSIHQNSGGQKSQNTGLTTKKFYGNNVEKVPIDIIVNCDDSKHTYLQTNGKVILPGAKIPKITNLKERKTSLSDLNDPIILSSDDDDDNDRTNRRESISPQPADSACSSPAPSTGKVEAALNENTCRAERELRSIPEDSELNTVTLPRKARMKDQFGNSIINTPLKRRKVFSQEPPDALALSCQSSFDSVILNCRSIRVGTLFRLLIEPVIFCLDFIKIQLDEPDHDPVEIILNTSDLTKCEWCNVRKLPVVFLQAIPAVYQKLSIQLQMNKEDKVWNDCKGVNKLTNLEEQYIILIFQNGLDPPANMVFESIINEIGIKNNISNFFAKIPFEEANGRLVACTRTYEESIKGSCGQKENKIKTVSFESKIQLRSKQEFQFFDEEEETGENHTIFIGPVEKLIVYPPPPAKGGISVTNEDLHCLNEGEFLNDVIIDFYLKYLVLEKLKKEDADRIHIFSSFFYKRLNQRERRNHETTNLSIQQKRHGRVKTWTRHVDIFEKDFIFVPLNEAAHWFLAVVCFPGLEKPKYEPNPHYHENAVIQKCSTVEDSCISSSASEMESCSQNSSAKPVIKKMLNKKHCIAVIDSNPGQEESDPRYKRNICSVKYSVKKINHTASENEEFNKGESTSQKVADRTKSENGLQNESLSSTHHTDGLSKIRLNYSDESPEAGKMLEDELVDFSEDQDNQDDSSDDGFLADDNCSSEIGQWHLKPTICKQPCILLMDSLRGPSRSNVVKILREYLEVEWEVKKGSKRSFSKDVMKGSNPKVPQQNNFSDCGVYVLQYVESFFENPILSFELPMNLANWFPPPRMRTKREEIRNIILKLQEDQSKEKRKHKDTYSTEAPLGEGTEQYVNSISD

[4] = target: Ribosomal protein S6 kinase beta-1 (Homo sapiens, UniProt P23443); type: functional;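 note: measured as one member of a kinome-wide profiling panel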
[5] = target: Serine/threonine-protein kinase 3 (Homo sapiens, UniProt Q13188); type: functional;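 note: measured as one member of a kinome-wide kinase panel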
Sequence of Serine/threonine-protein kinase 3 (Q13188 whole entry): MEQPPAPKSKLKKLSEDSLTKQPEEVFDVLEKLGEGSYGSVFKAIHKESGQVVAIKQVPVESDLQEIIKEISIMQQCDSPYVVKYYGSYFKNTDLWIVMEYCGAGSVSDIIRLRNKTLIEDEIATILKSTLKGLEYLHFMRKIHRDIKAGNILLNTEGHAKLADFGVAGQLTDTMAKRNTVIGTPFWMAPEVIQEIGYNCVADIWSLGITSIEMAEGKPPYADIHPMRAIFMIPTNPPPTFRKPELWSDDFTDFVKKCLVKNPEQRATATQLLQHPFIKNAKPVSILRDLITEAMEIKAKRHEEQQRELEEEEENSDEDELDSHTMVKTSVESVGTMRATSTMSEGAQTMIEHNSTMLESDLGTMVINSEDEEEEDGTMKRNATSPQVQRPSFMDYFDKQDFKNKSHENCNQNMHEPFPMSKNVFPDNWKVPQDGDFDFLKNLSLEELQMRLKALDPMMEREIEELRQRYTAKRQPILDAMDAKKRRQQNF

[6] = target: Cyclin-dependent kinase 2 (Homo sapiens, UniProt P24941); type: functional;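 note: CDK2 measured as one member of a broad kinome profiling panel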
[7] = target: Glycogen synthase kinase-3 alpha (Homo sapiens, UniProt P49840); type: functional;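 note: GSK3A result taken from a broad kinome-wide kinase panel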
[8] = target: Serine/threonine-protein kinase PAK 1 (Homo sapiens, UniProt Q13153); type: functional
[9] = target: Serine/threonine-protein kinase D2 (Homo sapiens, UniProt Q9BZL6); type: functional;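 note: measured against PRKD2 as one member of a kinome-wide kinase profiling panel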
Ephrin type-A receptor 2 = Ephrin type-A receptor 2 (Homo sapiens, UniProt P29317); type: functional;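 note: EPHA2 tested as one member of a kinome-wide kinase panel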
[10] = target: Casein kinase I isoform delta (Homo sapiens, UniProt P48730); type: functional;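 note: measured as one member (CSNK1D) of a kinome panel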
Sequence of Casein kinase I isoform delta (P48730 whole entry, canonical isoform): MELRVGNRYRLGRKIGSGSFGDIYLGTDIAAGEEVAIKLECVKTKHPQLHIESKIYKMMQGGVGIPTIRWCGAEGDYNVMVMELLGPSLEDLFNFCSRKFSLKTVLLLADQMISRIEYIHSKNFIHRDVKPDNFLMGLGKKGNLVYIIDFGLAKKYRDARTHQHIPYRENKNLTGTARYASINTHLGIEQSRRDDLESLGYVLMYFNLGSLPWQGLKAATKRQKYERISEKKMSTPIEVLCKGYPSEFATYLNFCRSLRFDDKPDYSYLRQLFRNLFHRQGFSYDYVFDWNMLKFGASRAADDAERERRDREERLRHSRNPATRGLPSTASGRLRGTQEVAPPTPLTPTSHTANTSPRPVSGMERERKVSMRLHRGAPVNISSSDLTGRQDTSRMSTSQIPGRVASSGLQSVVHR

[11] = target: MAP/microtubule affinity-regulating kinase 3 (Homo sapiens, UniProt P27448); type: functional;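 note: MARK3 affinity measured as one member of a kinome panel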
[12] = target: Hepatocyte growth factor receptor (Homo sapiens, UniProt P08581); type: functional;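 note: kinase panel profiling across the kinome, with MET as the panel member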
Sequence of Hepatocyte growth factor receptor (P08581 whole entry): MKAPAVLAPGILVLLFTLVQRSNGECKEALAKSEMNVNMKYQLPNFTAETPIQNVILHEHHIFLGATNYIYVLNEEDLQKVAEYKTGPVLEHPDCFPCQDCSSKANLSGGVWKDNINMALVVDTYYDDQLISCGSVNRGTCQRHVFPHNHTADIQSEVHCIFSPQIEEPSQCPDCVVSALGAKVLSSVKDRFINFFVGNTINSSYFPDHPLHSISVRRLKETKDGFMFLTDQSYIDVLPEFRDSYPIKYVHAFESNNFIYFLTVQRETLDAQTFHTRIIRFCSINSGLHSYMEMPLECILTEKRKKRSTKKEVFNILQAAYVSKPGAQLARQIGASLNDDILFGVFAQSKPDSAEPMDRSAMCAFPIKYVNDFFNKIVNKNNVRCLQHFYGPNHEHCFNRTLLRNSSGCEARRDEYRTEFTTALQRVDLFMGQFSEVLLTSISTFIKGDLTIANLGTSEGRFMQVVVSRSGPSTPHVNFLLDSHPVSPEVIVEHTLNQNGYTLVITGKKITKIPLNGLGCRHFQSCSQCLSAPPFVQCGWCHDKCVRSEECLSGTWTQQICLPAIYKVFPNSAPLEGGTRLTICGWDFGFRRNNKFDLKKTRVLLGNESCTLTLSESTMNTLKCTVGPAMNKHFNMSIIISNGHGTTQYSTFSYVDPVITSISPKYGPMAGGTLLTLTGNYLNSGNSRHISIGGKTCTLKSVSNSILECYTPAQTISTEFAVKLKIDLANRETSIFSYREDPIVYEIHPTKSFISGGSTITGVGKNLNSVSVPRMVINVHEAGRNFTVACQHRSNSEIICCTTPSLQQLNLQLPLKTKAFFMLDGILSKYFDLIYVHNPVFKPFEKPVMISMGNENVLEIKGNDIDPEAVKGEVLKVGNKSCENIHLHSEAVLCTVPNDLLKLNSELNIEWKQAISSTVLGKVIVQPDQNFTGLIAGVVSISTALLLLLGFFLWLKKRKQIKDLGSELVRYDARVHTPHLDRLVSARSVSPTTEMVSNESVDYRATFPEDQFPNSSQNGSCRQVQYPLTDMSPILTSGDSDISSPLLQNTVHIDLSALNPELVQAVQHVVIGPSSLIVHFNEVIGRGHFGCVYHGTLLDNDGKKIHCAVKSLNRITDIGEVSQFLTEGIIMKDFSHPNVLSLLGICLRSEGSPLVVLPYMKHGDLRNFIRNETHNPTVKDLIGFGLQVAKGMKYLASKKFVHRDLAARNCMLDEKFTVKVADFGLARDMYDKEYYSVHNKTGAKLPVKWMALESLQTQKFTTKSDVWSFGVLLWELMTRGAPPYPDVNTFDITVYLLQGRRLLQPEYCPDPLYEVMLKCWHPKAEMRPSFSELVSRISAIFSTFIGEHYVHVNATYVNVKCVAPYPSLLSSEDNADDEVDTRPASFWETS

[13] = target: Vascular endothelial growth factor receptor 2 (Homo sapiens, UniProt P35968); type: functional
[14] = target: BDNF/NT-3 growth factors receptor (Homo sapiens, UniProt Q16620); type: functional;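 note: NTRK2 measured as one member of a broad kinome-wide kinase profiling panel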
[15] = target: RAC-gamma serine/threonine-protein kinase (Homo sapiens, UniProt Q9Y243); type: functional
[16] = target: Serine/threonine-protein kinase Nek2 (Homo sapiens, UniProt P51955); type: functional
Sequence of Serine/threonine-protein kinase Nek2 (P51955 whole entry): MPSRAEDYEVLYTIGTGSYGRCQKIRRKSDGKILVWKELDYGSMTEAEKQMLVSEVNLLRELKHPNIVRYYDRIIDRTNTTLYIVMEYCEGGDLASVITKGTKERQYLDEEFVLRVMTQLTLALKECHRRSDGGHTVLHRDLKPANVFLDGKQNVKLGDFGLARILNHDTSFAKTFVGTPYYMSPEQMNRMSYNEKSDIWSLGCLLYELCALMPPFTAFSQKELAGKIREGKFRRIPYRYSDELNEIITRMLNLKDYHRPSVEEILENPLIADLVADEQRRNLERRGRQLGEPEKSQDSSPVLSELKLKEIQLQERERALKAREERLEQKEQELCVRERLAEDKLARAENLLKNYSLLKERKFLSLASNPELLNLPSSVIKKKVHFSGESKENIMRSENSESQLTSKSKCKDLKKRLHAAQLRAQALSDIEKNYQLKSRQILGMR

[17] = target: Receptor tyrosine-protein kinase erbB-4 (Homo sapiens, UniProt Q15303); type: functional;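 note: ERBB4 member of a kinome-wide kinase profiling panel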
Sequence of Receptor tyrosine-protein kinase erbB-4 (Q15303 whole entry): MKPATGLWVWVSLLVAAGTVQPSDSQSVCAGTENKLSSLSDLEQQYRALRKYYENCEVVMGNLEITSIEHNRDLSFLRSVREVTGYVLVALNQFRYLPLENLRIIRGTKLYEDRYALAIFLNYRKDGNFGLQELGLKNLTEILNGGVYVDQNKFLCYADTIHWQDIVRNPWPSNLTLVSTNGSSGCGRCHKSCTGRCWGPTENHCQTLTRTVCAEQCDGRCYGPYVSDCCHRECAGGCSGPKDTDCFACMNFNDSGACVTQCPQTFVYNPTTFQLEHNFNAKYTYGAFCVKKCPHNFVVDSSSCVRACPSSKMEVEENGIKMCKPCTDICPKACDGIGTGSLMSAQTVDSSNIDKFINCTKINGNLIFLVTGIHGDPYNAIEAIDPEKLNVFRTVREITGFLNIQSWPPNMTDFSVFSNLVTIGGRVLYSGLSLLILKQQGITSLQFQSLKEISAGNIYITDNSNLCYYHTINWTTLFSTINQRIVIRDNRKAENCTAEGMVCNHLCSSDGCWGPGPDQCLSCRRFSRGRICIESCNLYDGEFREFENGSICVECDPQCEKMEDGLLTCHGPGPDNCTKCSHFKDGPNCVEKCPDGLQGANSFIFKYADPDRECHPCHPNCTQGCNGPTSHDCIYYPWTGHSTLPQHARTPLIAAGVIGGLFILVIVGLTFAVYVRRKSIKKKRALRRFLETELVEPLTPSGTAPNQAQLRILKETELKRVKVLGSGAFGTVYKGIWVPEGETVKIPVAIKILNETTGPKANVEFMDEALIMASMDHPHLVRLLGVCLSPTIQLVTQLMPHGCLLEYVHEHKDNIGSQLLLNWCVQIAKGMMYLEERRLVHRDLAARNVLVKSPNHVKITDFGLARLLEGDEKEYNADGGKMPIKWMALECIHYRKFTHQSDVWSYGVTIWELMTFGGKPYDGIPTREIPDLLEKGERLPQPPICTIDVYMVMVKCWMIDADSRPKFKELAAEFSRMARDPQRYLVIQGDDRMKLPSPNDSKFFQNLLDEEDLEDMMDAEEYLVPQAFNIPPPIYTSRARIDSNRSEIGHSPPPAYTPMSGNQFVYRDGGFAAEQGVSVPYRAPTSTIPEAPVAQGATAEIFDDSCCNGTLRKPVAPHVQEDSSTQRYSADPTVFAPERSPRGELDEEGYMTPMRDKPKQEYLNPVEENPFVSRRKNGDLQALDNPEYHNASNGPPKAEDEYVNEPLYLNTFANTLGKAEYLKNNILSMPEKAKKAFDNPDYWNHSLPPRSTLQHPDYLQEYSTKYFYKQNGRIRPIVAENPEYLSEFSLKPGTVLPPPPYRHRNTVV

[18] = target: Dual specificity tyrosine-phosphorylation-regulated kinase 1A (Homo sapiens, UniProt Q13627); type: functional;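 note: measured against DYRK1A as one member of a broad kinome profiling panel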
LIM domain kinase 1 = LIM domain kinase 1 (Homo sapiens, UniProt P53667); assay: Navigating the Kinome. Panel member name: LIMK1; type: functional
Sequence of LIM domain kinase 1 (P53667 whole entry, the tested form may be a part): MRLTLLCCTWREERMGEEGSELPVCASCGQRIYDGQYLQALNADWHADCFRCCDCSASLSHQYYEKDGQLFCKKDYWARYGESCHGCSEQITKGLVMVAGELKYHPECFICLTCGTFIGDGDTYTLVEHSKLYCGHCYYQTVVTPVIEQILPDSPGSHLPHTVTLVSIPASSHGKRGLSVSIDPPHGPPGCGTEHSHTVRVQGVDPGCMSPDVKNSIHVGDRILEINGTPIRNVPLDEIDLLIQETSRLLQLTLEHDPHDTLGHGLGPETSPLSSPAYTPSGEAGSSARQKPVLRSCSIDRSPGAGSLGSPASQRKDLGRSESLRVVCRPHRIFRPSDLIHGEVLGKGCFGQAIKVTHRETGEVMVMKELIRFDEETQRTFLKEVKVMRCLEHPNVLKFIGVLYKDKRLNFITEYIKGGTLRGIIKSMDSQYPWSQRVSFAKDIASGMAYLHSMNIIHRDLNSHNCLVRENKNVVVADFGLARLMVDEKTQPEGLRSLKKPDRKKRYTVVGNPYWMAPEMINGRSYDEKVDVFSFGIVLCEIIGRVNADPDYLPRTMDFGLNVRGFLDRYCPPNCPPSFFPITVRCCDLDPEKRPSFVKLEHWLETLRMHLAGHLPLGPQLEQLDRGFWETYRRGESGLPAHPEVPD

[19] = target: RAC-alpha serine/threonine-protein kinase (Homo sapiens, UniProt P31749); type: functional;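 note: AKT1 affinity measured as one member of a kinome-wide kinase profiling panel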
[20] = target: Inhibitor of nuclear factor kappa-B kinase subunit alpha (Homo sapiens, UniProt O15111); type: functional
INS1 = assay: beta cell apoptosis inhibitors, cytokine rescue, dose response, luminescence, retest (AID 449756); type: functional, cell-based; conditions: Rattus norvegicus;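 note: cell death triggered by IL-1 beta plus TNF-alpha plus IFN-gamma mixture; protective hits raise ATP signal compared with cytokine alone wells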
[21] = cytotoxicity toward DRD oncogenic fibroblasts, dose response, cell-based, non-viral oncogenic, luminescence (AID 1934); type: functional; conditions: Homo sapiens
HEK293 = assay: HEK cell cytotoxicity by LDH release, dose response, cytotoxicity control for IDE activator project, fluorescence, HEK cells (AID 588440); type: functional, cell-based; conditions: Homo sapiens;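 note: cytotoxicity by LDH release measuring loss of membrane integrity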
[22] = HeLa cell cytotoxicity, dose response, cytotoxicity control for MgcRacGAP inhibitor project (AID 624300); type: functional
[23] = inhibitors of PGC1a acetylation in cells, dose response, cell-based, cherry-picked samples (AID 720514); type: functional;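 note: potency may reflect raised or lowered acetylation signal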
[24] = mammalian cell cytotoxicity, dose response, cytotoxicity control, plate reader, cherry-pick samples (AID 504397); type: functional, cell-based

Structure (SMILES): CCC(C)NC(=O)c1c(N)n(CCCOC)c2nc3ccccc3nc12 (stereo not drawn)
EC50 [1]: 34100 nM (active)
EC50 [2]: 33200 nM (active)
IC50 [3]: 802 nM (active)

Ki [4]: 316 nM (active)
Ki [5]: 501 nM (active)
Ki [6]: 501 nM (active)
Ki [7]: > 7940 nM (inactive)
Ki [8]: 398 nM (active)
Ki [9]: 631 nM (active)
Ki (Ephrin type-A receptor 2): > 3160 nM (inactive)
Ki [10]: > 7940 nM (inactive)
Ki [11]: 2000 nM (active)
Ki [12]: 2510 nM (active)
Ki [13]: > 7940 nM (inactive)
Ki [14]: > 5010 nM (inactive)
Ki [15]: 398 nM (active)
Ki [16]: 3160 nM (active)
Ki [17]: > 3980 nM (inactive)
Ki [18]: > 6310 nM (inactive)
Ki (LIM domain kinase 1): 1260 nM (active)
Ki [19]: 398 nM (active)
Ki [20]: 501 nM (active)
Structure (SMILES): CC(=NNC(=N)N)c1cc(NC(=O)NCCCCCCNC(=O)Nc2cc(C(C)=NNC(=N)N)cc(C(C)=NNC(=N)N)c2)cc(C(C)=NNC(=N)N)c1

Structure (SMILES): Cc1cc(N)c2cc(NC(=O)/C=C/c3ccccc3Cl)ccc2n1
AC50 (INS1): 3830 nM (active)
EC50 [21]: 2880 nM (active)
IC50 (HEK293): 2630 nM (active)
CC50 [22]: 5350 nM (active)
AC50 [23]: 1970 nM (active)
AC50 [24]: 4260 nM (active)
